Values after ≈ are worked out from the molar mass of the structure shown.
Molecular target: T1, rat intestinal α-glucosidase
T1 construct: gene Si; crude buffer extract of rat intestinal acetone powder; mixture of brush-border alpha-glucosidases
Assay: p-nitrophenyl glucopyranoside hydrolysis, absorbance at […] nm
Assay type: biochemical
Details: 5 mM p-NPG stock (printed as beta anomer; 50 µL in 200 µL assay), 0.1 M sodium phosphate pH 6.9, 0.9% NaCl, 37 °C, 10 min preincubation; positive control; crude extract

C[C@H]1O[C@H](O[C@H]2[C@H](O)[C@@H](O)[C@@H](O[C@H]3[C@H](O)[C@@H](O)C(O)O[C@@H]3CO)O[C@@H]2CO)[C@H](O)[C@@H](O)[C@@H]1N[C@H]1C=C(CO)[C@@H](O)[C@H](O)[C@H]1O (stereo partly shown) [acarbose]
IC50: 27 µg/mL (≈ 41.8 µM)

— PMC7143835, “Anti-Hyperglycemic Effects of Green Crab Hydrolysates Derived by Commercially Available Enzymes” (Foods, 2020)
